# Test results taken from PubChem BioAssay AID2060325 (Molecular Pharmacology Branch, DTP, NCI, 2025).
# pIC50: −log10 of the molar value.
# Tested on: SK-OV-3 multi-cell spheroids, viability
# Assay: Anticancer human tumor SK-OV-3 cell line growth inhibition [IpAb];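 as to viability, T/C: viability read after seven days of drug exposure; percent of DMSO vehicle control luminescence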
# Conditions: for pIC50: curve of first compound; for viability, T/C: stronger effect = lower value
# How it was run: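 Spheroids of 60% malignant cells, 25% HUVEC and 15% MSC were exposed to targeted agents combined with ipatasertib or abemaciclib. Doses started at or near clinical Cmax (10 microM when unknown) and fell in half-log steps.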
# [1] = second compound 0.01 µM, first compound 0.0316 µM
# [2] = second compound 0.01 µM, first compound 0.1 µM
# [3] = second compound 0.0316 µM, first compound 0.0316 µM
# [4] = second compound 0.0316 µM, first compound 0.1 µM
# [5] = second compound 0.1 µM, first compound 0.0316 µM
# [6] = second compound 0.1 µM, first compound 0.1 µM
# [7] = second compound 0.316 µM, first compound 0.0316 µM
# [8] = second compound 0.316 µM, first compound 0.1 µM
# [9] = second compound 1 µM, first compound 0.0316 µM
# [10] = second compound 1 µM, first compound 0.1 µM
smiles,measurement,setting,value
Cn1ncc(Cl)c1-c1cc(C(=O)NC(CN)Cc2cccc(F)c2)sc1Cl (stereo not given) + CCN1CCN(Cc2ccc(Nc3ncc(F)c(-c4cc(F)c5nc(C)n(C(C)C)c5c4)n3)nc2)CC1,pIC50,second compound 0.01 µM,7.18
same,pIC50,second compound 0.0316 µM,7.46
same,pIC50,second compound 0.1 µM,> 7.50
same,pIC50,second compound 0.316 µM,> 7.50
same,pIC50,second compound 1 µM,> 7.50
same,"viability, T/C",[1],66.5%
same,"viability, T/C",[2],41%
same,"viability, T/C","second compound 0.01 µM, first compound 0.316 µM",22.1%
same,"viability, T/C","second compound 0.01 µM, first compound 1 µM",14.1%
same,"viability, T/C","second compound 0.01 µM, first compound 3.16 µM",6.99%
same,"viability, T/C","second compound 0.01 µM, first compound 10 µM",0.34%
same,"viability, T/C",[3],52.8%
same,"viability, T/C",[4],30.6%
same,"viability, T/C","second compound 0.0316 µM, first compound 0.316 µM",22.3%
same,"viability, T/C","second compound 0.0316 µM, first compound 1 µM",13.8%
same,"viability, T/C","second compound 0.0316 µM, first compound 3.16 µM",7.67%
same,"viability, T/C","second compound 0.0316 µM, first compound 10 µM",0.51%
same,"viability, T/C",[5],42.7%
same,"viability, T/C",[6],26.7%
same,"viability, T/C","second compound 0.1 µM, first compound 0.316 µM",18.1%
same,"viability, T/C","second compound 0.1 µM, first compound 1 µM",12.9%
same,"viability, T/C","second compound 0.1 µM, first compound 3.16 µM",7.38%
same,"viability, T/C","second compound 0.1 µM, first compound 10 µM",0.3%
same,"viability, T/C",[7],43.3%
same,"viability, T/C",[8],29.8%
same,"viability, T/C","second compound 0.316 µM, first compound 0.316 µM",20%
same,"viability, T/C","second compound 0.316 µM, first compound 1 µM",15.1%
same,"viability, T/C","second compound 0.316 µM, first compound 3.16 µM",8.84%
same,"viability, T/C","second compound 0.316 µM, first compound 10 µM",0.17%
same,"viability, T/C",[9],36.3%
same,"viability, T/C",[10],34.7%
same,"viability, T/C","second compound 1 µM, first compound 0.316 µM",24.4%
same,"viability, T/C","second compound 1 µM, first compound 1 µM",17.8%
same,"viability, T/C","second compound 1 µM, first compound 3.16 µM",12.2%
same,"viability, T/C","second compound 1 µM, first compound 10 µM",0.39%
Cn1ncnc1[C@H]1c2n[nH]c(=O)c3cc(F)cc(c23)N[C@@H]1c1ccc(F)cc1 + CCN1CCN(Cc2ccc(Nc3ncc(F)c(-c4cc(F)c5nc(C)n(C(C)C)c5c4)n3)nc2)CC1,pIC50,second compound 0.01 µM,< 7.00
same,pIC50,second compound 0.0316 µM,< 7.00
same,pIC50,second compound 0.1 µM,< 7.00
same,pIC50,second compound 0.316 µM,< 7.00
same,pIC50,second compound 1 µM,> 9.50
same,"viability, T/C","second compound 0.01 µM, first compound 0.000316 µM",99.8%
same,"viability, T/C","second compound 0.01 µM, first compound 0.001 µM",93.9%
same,"viability, T/C","second compound 0.01 µM, first compound 0.00316 µM",86.6%
same,"viability, T/C","second compound 0.01 µM, first compound 0.01 µM",86.3%
same,"viability, T/C",[1],83.4%
same,"viability, T/C",[2],60.2%
same,"viability, T/C","second compound 0.0316 µM, first compound 0.000316 µM",75.2%
same,"viability, T/C","second compound 0.0316 µM, first compound 0.001 µM",81.6%
same,"viability, T/C","second compound 0.0316 µM, first compound 0.00316 µM",70.7%
same,"viability, T/C","second compound 0.0316 µM, first compound 0.01 µM",63.4%
same,"viability, T/C",[3],66.3%
same,"viability, T/C",[4],58.4%
same,"viability, T/C","second compound 0.1 µM, first compound 0.000316 µM",60.7%
same,"viability, T/C","second compound 0.1 µM, first compound 0.001 µM",59.5%
same,"viability, T/C","second compound 0.1 µM, first compound 0.00316 µM",56.4%
same,"viability, T/C","second compound 0.1 µM, first compound 0.01 µM",53.4%
same,"viability, T/C",[5],53.2%
same,"viability, T/C",[6],50.5%
same,"viability, T/C","second compound 0.316 µM, first compound 0.000316 µM",55.8%
same,"viability, T/C","second compound 0.316 µM, first compound 0.001 µM",56.3%
same,"viability, T/C","second compound 0.316 µM, first compound 0.00316 µM",52.1%
same,"viability, T/C","second compound 0.316 µM, first compound 0.01 µM",52%
same,"viability, T/C",[7],51.4%
same,"viability, T/C",[8],53.3%
same,"viability, T/C","second compound 1 µM, first compound 0.000316 µM",49.5%
same,"viability, T/C","second compound 1 µM, first compound 0.001 µM",45.1%
same,"viability, T/C","second compound 1 µM, first compound 0.00316 µM",43.2%
same,"viability, T/C","second compound 1 µM, first compound 0.01 µM",46.4%
same,"viability, T/C",[9],45.4%
same,"viability, T/C",[10],43%
